{"source": "patent US8586620B2", "about": "“Substituted indole compounds having NOS inhibitory activity” (NeurAxon, Inc., priority 2005, dated 2013)", "key": {"[1]": {"tested_on": "formalin-induced hind paw licking", "experiment": "Formalin-induced paw licking in mice", "type": "in vivo", "conditions": "intraperitoneally 30 minutes before formalin, Phase II (20 to 30 minute), FIG. 5", "procedure": "Formalin Induced Hyperalgesia and Inflammation: In an experimental model of sustained inflammatory nociception associated with long term intracellular changes of nociceptive processing at the level of the spinal cord, mice or rats are subjected to a subplantar injection of formalin into a paw (Chapman et al., Brain Res. 697:258-261, 1995; Meller and Gebhart, Pain 52:127-136, 1993). Two distinct phases of spontaneous nociceptive behaviour exist: The first phase (Phase I) last about 5 minutes, followed by a second phase (Phase II), lasting approximately 40 minutes characterized by persistent shaking or licking of the injected paw (Fu et al., Neuroscience 101(4):1127-1135, 2000). Longer periods after injection of formalin results in the development of allodynia and hyperalgesia (1-4 weeks). […] Test compounds, including compound 12 and 7-NI, were dissolved in 1% DMSO/2% Tween 80/0.9% NaCl. Male or female ICR-derived mice weighing 23±2 g were housed in APEC® cages and maintained in a controlled temperature (22° C.-24° C.) and humidity (60%-80%) environment with 12 hr light-dark cycles for 1 week prior to use. Free access to standard lab chow and tap water was granted. […] The reduction of formalin-induced hind paw licking time was recorded during the following 20 to 30 minute period (Phase II)."}, "CA1 hippocampal slices": {"tested_on": "CA1 hippocampal slices", "experiment": "Evoked field potentials in CA1 hippocampal slices after OGD", "type": "cell-based, rat", "conditions": "slices after 10 min OGD; compound 12 50 μM, 7-NI 100 μM; FIG. 16", "procedure": "Slice Preparation: Male Wistar rats, 180-200 gm, were anesthetized with halothane and decapitated. Their brains were removed and placed in artificial cerebral spinal fluid (ACSF) at 0.5° C. within 60 s of decapitation. […] Brains were hemisected and hippocampi were dissected out and sectioned into […] thick slices using a McIlwain Tissue chopper (Mickle Laboratory Engineering Co. Gomshall, GB). Sectioning was initiated approximately 1 mm from the rostral end of the hippocampus and approximately 12 slices were harvested from each hippocampus. Slices were distributed into groups in a rotational manner so that each group contained slices from all sectioned regions of the hippocampus. The hippocampal slices were placed on nylon mesh platforms in interface-type incubation chambers (6-8 slices per platform; 1 platform per chamber) for 90 min at 35° C. The ACSF in these chambers, and the atmosphere above it, was continuously gassed with 95% O2/5% CO2. […]\n(a) Preservation of Evoked Field Potentials: The efficacy of synaptic transmission in these slices was evaluated using electrophysiological techniques. […] Evoked potentials (EP) were recorded in the CA1 from the stratum pyrimidale using glass micropipettes (2-5 megohms) filled with 150 mM NaCl. Population spike (PS) amplitude was measured from the peak downward deflection to the midway point between the 2 positive peaks. […]"}, "Hippocampal slices": {"tested_on": "Hippocampal slices", "experiment": "Mitochondrial metabolic activity in hippocampal slices after OGD, TTC staining", "type": "cell-based, rat", "conditions": "100 μM; 10 min OGD; control live normalized to 100%; n=5", "procedure": "Brain injury can be measured in brain sections by incubating sections of fresh brain in 2,3,5-triphenyltetrazolium chloride (TTC). TTC, which is colorless, is reduced by mitochondrial succinate dehydrogenase in living tissue to a red formazan product. Combinations of photography or scanning and image analysis are then used to measure the area of normal (red) and damaged (uncolored) tissue at the surface of each section face and estimate the extent of damage. The TTC staining technique has been further refined by members of the Experimental Stroke Group at IBS (Study Host: University of Ottawa, Canada) using a solvent to extract the colored formazan product from tissue sections and measured it spectrophotometrically, thus obtaining a simple, objective measure of damage (Preston and Webster, J. Neurosci. Meth. 94(2):187-92, 1999). […]\n(b) Preservation of Mitochondrial Metabolic Activity by compound 12 using TTC staining: Hippocampal slices exposed to 10 min OGD (control dead) retained 25±5% (n=5 groups of 4-5 slices) of the absorbance of slices not subjected to an insult (control live—normalized to 100%), whereas slices preincubated in 0.3 mM calcium 30 min prior to and during OGD retained 107±27% (n=5) of their absorbance (control protection). […]"}}, "note": "Entries after “also recorded” stand apart in the source; their conditions may differ."}
{"smiles": "O=[N+]([O-])c1cccc2cn[nH]c12", "note": "[Compound 7-NI, 7-nitroindazole]", "values": [{"measurement": "formalin-induced hind paw licking", "setting": "[1]", "value": "reduction in the frequency of paw licking"}, {"measurement": "preservation of population spike", "setting": "CA1 hippocampal slices", "value": "did not preserve population spike; also recorded: fiber volleys, but no PSs"}, {"measurement": "absorbance retained (TTC staining)", "setting": "Hippocampal slices", "value": "81±18", "unit": "%"}]}
